Source: ChEMBL document CHEMBL1201861, “Genomics of Drug Sensitity in Cancer screening data, Wellcome Trust Sanger Institute”

Assays:
Test in all cases: cells
MZ7-mel = format: functional, cell-based, Homo sapiens; details: Homo sapiens, MZ7-mel;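 further: growth inhibition of human MZ7-mel cells, measured by a cell viability assay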
Description: SANGER: Inhibition of human MZ7-mel cell growth in a cell viability assay.

SK-MEL-2 = format: functional, cell-based, Homo sapiens; details: Homo sapiens, SK-MEL-2;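 further: growth inhibition of human SK-MEL-2 cells measured with a cell viability assay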
Description: SANGER: Inhibition of human SK-MEL-2 cell growth in a cell viability assay.

NCI-H28 = format: functional, cell-based, Homo sapiens; details: Homo sapiens, NCI-H28;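 further: growth inhibition of human NCI-H28 cells, read out as cell viability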
Description: SANGER: Inhibition of human NCI-H28 cell growth in a cell viability assay.

RPMI-8226 = format: functional, cell-based; details: Homo sapiens
Description: SANGER: Inhibition of human RPMI-8226 cell growth in a cell viability assay.

COLO-741 = format: functional, cell-based, Homo sapiens; details: Homo sapiens, COLO-741
Description: SANGER: Inhibition of human COLO-741 cell growth in a cell viability assay.

HCC38 = format: functional, cell-based, Homo sapiens; details: Homo sapiens, HCC38;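 further: cell viability assay on the human HCC38 cell line, with IC50 marking the concentration that inhibits cell growth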
Description: SANGER: Inhibition of human HCC38 cell growth in a cell viability assay.

HOP-62 = format: functional, cell-based, Homo sapiens; details: Homo sapiens, HOP-62;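 further: cell growth inhibition determined with a viability assay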
Description: SANGER: Inhibition of human HOP-62 cell growth in a cell viability assay.

769-P = format: functional, cell-based, Homo sapiens; details: Homo sapiens, 769-P
Description: SANGER: Inhibition of human 769-P cell growth in a cell viability assay.

L-363 = format: functional, cell-based; details: Homo sapiens
Description: SANGER: Inhibition of human L-363 cell growth in a cell viability assay.

IST-MES1 = format: functional, cell-based, Homo sapiens; details: Homo sapiens, IST-MES1;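 further: growth inhibition of IST-MES1 cells, measured with a cell viability assay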
Description: SANGER: Inhibition of human IST-MES1 cell growth in a cell viability assay.

NCI-N87 = format: functional, cell-based, Homo sapiens; details: Homo sapiens, NCI-N87;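 further: growth inhibition of human NCI-N87 cells, read out with a cell viability assay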
Description: SANGER: Inhibition of human NCI-N87 cell growth in a cell viability assay.

SW837 = format: functional, cell-based, Homo sapiens; details: Homo sapiens, SW837;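 further: growth inhibition of SW837 cells, determined with a cell viability assay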
Description: SANGER: Inhibition of human SW837 cell growth in a cell viability assay.

HCC2218 = format: functional, cell-based; details: Homo sapiens;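 further: cell viability assay read-out, with IC50 given as the concentration that inhibits growth of the cell line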
Description: SANGER: Inhibition of human HCC2218 cell growth in a cell viability assay.

PC-3 = format: functional, cell-based, Homo sapiens; details: Homo sapiens, PC-3;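 further: cell viability assay measuring growth inhibition of PC-3 cells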
Description: SANGER: Inhibition of human PC-3 cell growth in a cell viability assay.

SF-295 = format: functional, cell-based, Homo sapiens; details: Homo sapiens, SF-295; read-out: IC50;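 further: growth inhibition of SF-295 cells, read out with a cell viability assay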
Description: SANGER: Inhibition of human SF295 cell growth in a cell viability assay.

8305C = format: functional, cell-based, Homo sapiens; details: Homo sapiens, 8305C
Description: SANGER: Inhibition of human 8305C cell growth in a cell viability assay.

GMS-10 = format: functional, cell-based, Homo sapiens; details: Homo sapiens, GMS-10;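 further: growth inhibition of GMS-10 cells, read out as cell viability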
Description: SANGER: Inhibition of human GMS-10 cell growth in a cell viability assay.

NOMO-1 = format: functional, cell-based; details: Homo sapiens;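 further: growth inhibition of human NOMO-1 cells measured by a cell viability assay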
Description: SANGER: Inhibition of human NOMO-1 cell growth in a cell viability assay.

OVCAR-5 = format: functional, cell-based, Homo sapiens; details: Homo sapiens, OVCAR-5;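 further: growth inhibition of human OVCAR-5 cells, read out with a cell viability assay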
Description: SANGER: Inhibition of human OVCAR-5 cell growth in a cell viability assay.

KURAMOCHI = format: functional, cell-based; details: Homo sapiens;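 further: growth inhibition of KURAMOCHI cells, read out with a cell viability assay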
Description: SANGER: Inhibition of human KURAMOCHI cell growth in a cell viability assay.

A2780 = format: functional, cell-based, Homo sapiens; details: Homo sapiens, A2780;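 further: growth inhibition of A2780 cells, read out with a cell viability assay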
Description: SANGER: Inhibition of human A2780 cell growth in a cell viability assay.

RD = format: functional, cell-based, Homo sapiens; details: Homo sapiens, RD
Description: SANGER: Inhibition of human RD cell growth in a cell viability assay.

NB6 = format: functional, cell-based, Homo sapiens; details: Homo sapiens, NB6;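 further: growth inhibition of NB6 cells, read out by a cell viability assay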
Description: SANGER: Inhibition of human NB6 cell growth in a cell viability assay.

SBC-1 = format: functional, cell-based; details: Homo sapiens;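 further: cell viability assay measuring growth inhibition of the SBC-1 cell line, IC50 being the concentration that halves growth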
Description: SANGER: Inhibition of human SBC-1 cell growth in a cell viability assay.

RXF 393 = format: functional, cell-based; details: Homo sapiens;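 further: growth inhibition of human RXF 393 cells, read out with a cell viability assay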
Description: SANGER: Inhibition of human RXF393 cell growth in a cell viability assay.

CAL-27 = format: functional, cell-based, Homo sapiens; details: Homo sapiens, CAL-27;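 further: Viability-based readout, IC50 reflecting inhibition of CAL-27 cell growth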
Description: SANGER: Inhibition of human CAL-27 cell growth in a cell viability assay.

ES8 = format: functional, cell-based, Homo sapiens; details: Homo sapiens, ES8;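 further: growth inhibition of human ES8 cells, read out with a cell viability assay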
Description: SANGER: Inhibition of human ES8 cell growth in a cell viability assay.

Calu-3 = format: functional, cell-based, Homo sapiens; details: Homo sapiens, Calu-3;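 further: growth inhibition of human Calu-3 cells, determined with a cell viability assay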
Description: SANGER: Inhibition of human Calu-3 cell growth in a cell viability assay.

HuP-T3 = format: functional, cell-based, Homo sapiens; details: Homo sapiens, HuP-T3;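 further: HuP-T3 cell growth inhibition, read out with a cell viability assay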
Description: SANGER: Inhibition of human HuP-T3 cell growth in a cell viability assay.

C-33-A = format: functional, cell-based, Homo sapiens; details: Homo sapiens, C-33-A;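 further: cell viability assay measuring growth inhibition of C-33-A cells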
Description: SANGER: Inhibition of human C-33-A cell growth in a cell viability assay.

SKG-IIIa = format: functional, cell-based, Homo sapiens; details: Homo sapiens, SKG-IIIa;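 further: cell growth inhibition, read out with a cell viability assay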
Description: SANGER: Inhibition of human SKG-IIIa cell growth in a cell viability assay.

TE-10 = format: functional, cell-based, Homo sapiens; details: Homo sapiens, TE-10;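 further: growth inhibition of TE-10 cells, measured by a cell viability assay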
Description: SANGER: Inhibition of human TE-10 cell growth in a cell viability assay.

GAK = format: functional, cell-based, Homo sapiens; details: Homo sapiens, GAK;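 further: cell growth inhibition read out by a cell viability assay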
Description: SANGER: Inhibition of human GAK cell growth in a cell viability assay.

KARPAS-299 = format: functional, cell-based; details: Homo sapiens
Description: SANGER: Inhibition of human KARPAS-299 cell growth in a cell viability assay.

GI-ME-N = format: functional, cell-based, Homo sapiens; details: Homo sapiens, GI-ME-N;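 further: growth inhibition of human GI-ME-N cells, read out with a cell viability assay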
Description: SANGER: Inhibition of human GI-ME-N cell growth in a cell viability assay.

786-0 = format: functional, cell-based, Homo sapiens; details: Homo sapiens
Description: SANGER: Inhibition of human 786-0 cell growth in a cell viability assay.

LB1047-RCC = format: functional, cell-based, Homo sapiens; details: Homo sapiens, LB1047-RCC;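 further: inhibition of cell growth, determined with a cell viability assay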
Description: SANGER: Inhibition of human LB1047-RCC cell growth in a cell viability assay.

BHT-101 = format: functional, cell-based, Homo sapiens; details: Homo sapiens, BHT-101
Description: SANGER: Inhibition of human BHT-101 cell growth in a cell viability assay.

OCI-AML2 = format: functional, cell-based; details: Homo sapiens;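 further: growth inhibition of OCI-AML2 cells, read out with a cell viability assay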
Description: SANGER: Inhibition of human OCI-AML2 cell growth in a cell viability assay.

HCE-T = format: functional, cell-based, Homo sapiens; details: Homo sapiens, HCE-T;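 further: cell viability assay read-out, reporting inhibition of HCE-T cell growth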
Description: SANGER: Inhibition of human HCE-T cell growth in a cell viability assay.

COLO-829 = format: functional, cell-based, Homo sapiens; details: Homo sapiens, COLO-829
Description: SANGER: Inhibition of human COLO-829 cell growth in a cell viability assay.

HD-MY-Z = format: functional, cell-based, Homo sapiens; details: Homo sapiens, HD-MY-Z;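 further: growth inhibition of HD-MY-Z cells, read out with a cell viability assay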
Description: SANGER: Inhibition of human HD-MY-Z cell growth in a cell viability assay.

TE-9 = format: functional, cell-based, Homo sapiens; details: Homo sapiens, TE-9;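 further: cell growth inhibition, measured with a cell viability readout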
Description: SANGER: Inhibition of human TE-9 cell growth in a cell viability assay.

LK-2 = format: functional, cell-based, Homo sapiens; details: Homo sapiens, LK-2;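 further: growth inhibition of LK-2 cells, read out with a viability assay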
Description: SANGER: Inhibition of human LK-2 cell growth in a cell viability assay.

BB30-HNC = format: functional, cell-based, Homo sapiens; details: Homo sapiens, BB30-HNC;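 further: growth inhibition of the cultured cell line, read out by a cell viability assay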
Description: SANGER: Inhibition of human BB30-HNC cell growth in a cell viability assay.

UMUC3 = format: functional, cell-based, Homo sapiens; details: Homo sapiens, UMUC3;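 further: growth inhibition of human UM-UC-3 cells, read out with a cell viability assay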
Description: SANGER: Inhibition of human UM-UC-3 cell growth in a cell viability assay.

Becker = format: functional, cell-based, Homo sapiens; details: Homo sapiens, Becker;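 further: growth inhibition of Becker cells, read out with a cell viability assay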
Description: SANGER: Inhibition of human Becker cell growth in a cell viability assay.

EKVX = format: functional, cell-based, Homo sapiens; details: Homo sapiens, EKVX;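 further: growth inhibition of human EKVX cells, read out with a cell viability assay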
Description: SANGER: Inhibition of human EKVX cell growth in a cell viability assay.

EW-16 = format: functional, cell-based, Homo sapiens; details: Homo sapiens, EW-16;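 further: growth inhibition of human EW-16 cells, read out as cell viability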
Description: SANGER: Inhibition of human EW-16 cell growth in a cell viability assay.

NCI-H2052 = format: functional, cell-based, Homo sapiens; details: Homo sapiens, NCI-H2052;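 further: growth inhibition of NCI-H2052 cells, read out with a cell viability assay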
Description: SANGER: Inhibition of human NCI-H2052 cell growth in a cell viability assay.

KP-N-YN = format: functional, cell-based; details: Homo sapiens;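 further: growth inhibition of KP-N-YN cells, read out with a cell viability assay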
Description: SANGER: Inhibition of human KP-N-YN cell growth in a cell viability assay.

NB14 = format: functional, cell-based; details: Homo sapiens;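 further: growth inhibition of NB14 cells measured with a cell viability assay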
Description: SANGER: Inhibition of human NB14 cell growth in a cell viability assay.

`COc1cc([C@@H]2c3cc4c(cc3[C@@H](O[C@@H]3O[C@@H]5CO[C@@H](C)O[C@H]5[C@H](O)[C@H]3O)[C@H]3COC(=O)[C@H]23)OCO4)cc(OC)c1O` [ETOPOSIDE] was tested, and the IC50 (MZ7-mel) was 4.3 µM, the IC50 (SK-MEL-2) was over 16 µM and the IC50 (NCI-H28) was over 16 µM. It also gave an IC50 (RPMI-8226) of 14.3 µM, an IC50 (COLO-741) of over 16 µM and an IC50 (HCC38) of 2.27 µM. For the same molecule, the IC50 (HOP-62) was 0.524 µM, the IC50 (769-P) was 2.26 µM and the IC50 (L-363) was 6.59 µM. For the same molecule, the IC50 (IST-MES1) was over 16 µM, the IC50 (NCI-N87) was 15.8 µM and the IC50 (SW837) was over 16 µM. The IC50 (HCC2218) was over 16 µM, the IC50 (PC-3) was over 16 µM and the IC50 (SF-295) was 1.66 µM. It also gave an IC50 (8305C) of 2.32 µM, an IC50 (GMS-10) of over 16 µM and an IC50 (NOMO-1) of 2.19 µM. It also gave an IC50 (OVCAR-5) of 1.54 µM, an IC50 (KURAMOCHI) of 0.699 µM and an IC50 (A2780) of 1.11 µM. The IC50 (RD) was 4.8 µM, the IC50 (NB6) was over 16 µM and the IC50 (SBC-1) was over 16 µM. For the same molecule, the IC50 (RXF 393) was over 16 µM, the IC50 (CAL-27) was 10.4 µM and the IC50 (ES8) was 0.142 µM. It also gave an IC50 (Calu-3) of 0.496 µM, an IC50 (HuP-T3) of over 16 µM and an IC50 (C-33-A) of 0.862 µM. The IC50 (SKG-IIIa) was over 16 µM, the IC50 (TE-10) was 2.38 µM and the IC50 (GAK) was over 16 µM. The IC50 (KARPAS-299) was over 16 µM, the IC50 (GI-ME-N) was 9.83 µM and the IC50 (786-0) was 0.492 µM. It also gave an IC50 (LB1047-RCC) of 2.14 µM, an IC50 (BHT-101) of 3.11 µM and an IC50 (OCI-AML2) of 0.559 µM. It also gave an IC50 (HCE-T) of over 16 µM, an IC50 (COLO-829) of 1.77 µM and an IC50 (HD-MY-Z) of 8.54 µM. It also gave an IC50 (TE-9) of 0.0559 µM, an IC50 (LK-2) of 1.41 µM and an IC50 (BB30-HNC) of 0.0642 µM. It also gave an IC50 (UMUC3) of 1.15 µM, an IC50 (Becker) of 11.8 µM and an IC50 (EKVX) of over 16 µM. The IC50 (EW-16) was 0.0215 µM and the IC50 (NCI-H2052) was 11.5 µM.
Work on `Cc1cnc(-c2cnc(NCCNc3ccc(C#N)cn3)nc2-c2ccc(Cl)cc2Cl)[nH]1` [LADUVIGLUSIB] yielded an IC50 (MZ7-mel) of over 2.56 µM, an IC50 (SK-MEL-2) of over 2.56 µM and an IC50 (NCI-H28) of over 2.56 µM. The IC50 (RPMI-8226) was over 2.56 µM, the IC50 (COLO-741) was over 2.56 µM and the IC50 (HCC38) was over 2.56 µM. It also gave an IC50 (HOP-62) of over 2.56 µM, an IC50 (769-P) of 0.585 µM and an IC50 (L-363) of over 2.56 µM. It also gave an IC50 (IST-MES1) of over 2.56 µM, an IC50 (NCI-N87) of over 2.56 µM and an IC50 (SW837) of over 2.56 µM. The IC50 (HCC2218) was over 2.56 µM, the IC50 (PC-3) was over 2.56 µM and the IC50 (SF-295) was over 2.56 µM. It also gave an IC50 (8305C) of over 2.56 µM, an IC50 (GMS-10) of over 2.56 µM and an IC50 (NOMO-1) of over 2.56 µM. The IC50 (OVCAR-5) was over 2.56 µM, the IC50 (KURAMOCHI) was over 2.56 µM and the IC50 (A2780) was over 2.56 µM. The IC50 (RD) was over 2.56 µM, the IC50 (NB6) was over 2.56 µM and the IC50 (SBC-1) was over 2.56 µM. For the same molecule, the IC50 (RXF 393) was over 2.56 µM, the IC50 (CAL-27) was over 2.56 µM and the IC50 (ES8) was over 2.56 µM. For the same molecule, the IC50 (Calu-3) was over 2.56 µM, the IC50 (HuP-T3) was over 2.56 µM and the IC50 (C-33-A) was over 2.56 µM. It also gave an IC50 (SKG-IIIa) of over 2.56 µM, an IC50 (TE-10) of over 2.56 µM and an IC50 (GAK) of over 2.56 µM. The IC50 (KARPAS-299) was over 2.56 µM, the IC50 (GI-ME-N) was over 2.56 µM and the IC50 (786-0) was over 2.56 µM. The IC50 (LB1047-RCC) was over 2.56 µM, the IC50 (BHT-101) was over 2.56 µM and the IC50 (OCI-AML2) was over 2.56 µM. It also gave an IC50 (HCE-T) of over 2.56 µM, an IC50 (COLO-829) of over 2.56 µM and an IC50 (HD-MY-Z) of over 2.56 µM. The IC50 (TE-9) was over 2.56 µM, the IC50 (LK-2) was over 2.56 µM and the IC50 (BB30-HNC) was over 2.56 µM. The IC50 (UMUC3) was over 2.56 µM, the IC50 (Becker) was over 2.56 µM and the IC50 (EKVX) was over 2.56 µM. The IC50 (EW-16) was over 2.56 µM and the IC50 (NCI-H2052) was over 2.56 µM.
Molecule `O=C(/C=C/c1ccccc1)NC(NC(=S)Nc1cccc2cccnc12)C(Cl)(Cl)Cl` (centres undefined) [SALUBRINAL] has an IC50 (MZ7-mel) of over 16 µM, an IC50 (SK-MEL-2) of over 16 µM and an IC50 (RPMI-8226) of over 16 µM. For the same molecule, the IC50 (HOP-62) was over 16 µM, the IC50 (KP-N-YN) was over 16 µM and the IC50 (L-363) was 13.6 µM. It also gave an IC50 (IST-MES1) of over 16 µM, an IC50 (HCC2218) of over 16 µM and an IC50 (NOMO-1) of over 16 µM. The IC50 (KURAMOCHI) was over 16 µM, the IC50 (NB6) was over 16 µM and the IC50 (SBC-1) was over 16 µM. For the same molecule, the IC50 (RXF 393) was over 16 µM, the IC50 (ES8) was 8.64 µM and the IC50 (TE-10) was over 16 µM. The IC50 (GAK) was over 16 µM, the IC50 (KARPAS-299) was over 16 µM and the IC50 (GI-ME-N) was over 16 µM. It also gave an IC50 (LB1047-RCC) of over 16 µM, an IC50 (OCI-AML2) of 15.9 µM and an IC50 (HCE-T) of over 16 µM. The IC50 (COLO-829) was over 16 µM, the IC50 (HD-MY-Z) was over 16 µM and the IC50 (NB14) was over 16 µM. It also gave an IC50 (TE-9) of over 16 µM, an IC50 (BB30-HNC) of over 16 µM and an IC50 (Becker) of 5.79 µM. It also gave an IC50 (EKVX) of over 16 µM and an IC50 (EW-16) of over 16 µM.
